From patent US20080293795A1, “COMBINATION THERAPY WITH PARP INHIBITORS” (ABBOTT LABORATORIES, priority 2006, published 2008)

Target: T1, Recombinant Human Poly(ADP-Ribose) Polymerase (PARP) (Homo sapiens, UniProt P09874)
T1 construct: purchased Trevigen, Gaithersburg, Md; host or cells: E. coli
Experiment: PARP1 inhibition assay ([3H]-NAD+, biotinylated histone H1, FlashPlate/SPA)
Type: biochemical
Conditions: from inhibition curves at various substrate concentrations
Procedure: Nicotinamide[2,5′,8-3H]adenine dinucleotide and strepavidin SPA beads were purchased from Amersham Biosiences (UK) Recombinant Human Poly(ADP-Ribose) Polymerase (PARP) purified from E. coli and 6-Biotin-17-NAD^+, were purchase from Trevigen, Gaithersburg, Md. NAD^+, Histone, aminobenzamide, 3-amino benzamide and Calf Thymus DNA (dcDNA) were purchased from Sigma, St. Louis, Mo. […] Biotinylated histone H1 was prepared by treating the protein with Sulfo-NHS-LC-Biotin from Pierce Rockford, Ill. […] Streptavidin coated (FlashPlate Plus) microplates were purchased from Perkin Elmer, Boston, Mass.
PARP1 assay was conducted in PARP assay buffer containing 50 mM Tris pH 8.0, 1 mM DTT, 4 mM MgCl2. […] 170 μl of the stopped reaction mixtures were transferred to streptavidin Flash Plates, incubated for 1 hr, and counted using a TopCount microplate scintillation counter.

T1 sequence (P09874 whole entry): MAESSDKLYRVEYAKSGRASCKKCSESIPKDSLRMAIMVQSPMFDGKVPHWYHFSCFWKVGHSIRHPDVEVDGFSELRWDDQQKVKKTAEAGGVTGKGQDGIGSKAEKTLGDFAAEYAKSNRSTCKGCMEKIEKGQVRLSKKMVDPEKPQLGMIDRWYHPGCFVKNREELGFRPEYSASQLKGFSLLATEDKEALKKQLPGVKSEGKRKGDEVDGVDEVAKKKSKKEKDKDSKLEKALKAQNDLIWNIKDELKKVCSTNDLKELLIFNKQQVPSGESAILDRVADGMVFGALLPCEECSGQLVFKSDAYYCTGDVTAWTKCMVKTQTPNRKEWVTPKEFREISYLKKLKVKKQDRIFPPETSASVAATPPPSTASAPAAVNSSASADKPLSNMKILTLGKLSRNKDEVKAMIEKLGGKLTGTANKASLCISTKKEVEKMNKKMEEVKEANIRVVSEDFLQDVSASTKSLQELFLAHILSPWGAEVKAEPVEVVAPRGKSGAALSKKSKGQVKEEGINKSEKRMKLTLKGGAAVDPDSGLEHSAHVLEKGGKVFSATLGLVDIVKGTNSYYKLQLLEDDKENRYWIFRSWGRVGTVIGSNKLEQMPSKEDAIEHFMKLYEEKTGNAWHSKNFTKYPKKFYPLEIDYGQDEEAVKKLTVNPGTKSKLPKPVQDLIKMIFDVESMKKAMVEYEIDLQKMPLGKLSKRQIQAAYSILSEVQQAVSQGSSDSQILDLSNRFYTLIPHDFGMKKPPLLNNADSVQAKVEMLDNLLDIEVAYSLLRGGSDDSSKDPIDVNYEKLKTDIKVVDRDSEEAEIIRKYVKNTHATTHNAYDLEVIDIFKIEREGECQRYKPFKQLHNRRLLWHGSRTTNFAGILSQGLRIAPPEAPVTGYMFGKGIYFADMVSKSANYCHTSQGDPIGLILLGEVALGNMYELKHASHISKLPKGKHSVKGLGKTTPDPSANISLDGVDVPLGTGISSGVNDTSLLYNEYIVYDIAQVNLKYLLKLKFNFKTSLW

| SMILES | Ki [nM] |
| --- | --- |
| CC1(c2nc3c(C(N)=O)cccc3[nH]2)CCN1C1CCC1 (stereo not drawn) [2-(1-cyclobutyl-2-methylazetidin-2-yl)-1H-benzimidazole-4-carboxamide] | 33.3 |
| CC1(c2nc3c(C(N)=O)cccc3[nH]2)CN(C2CCC2)C1 [2-(1-cyclobutyl-3-methylazetidin-3-yl)-1H-benzimidazole-4-carboxamide] | 6.1 |
| CC1(c2nc3c(C(N)=O)cccc3[nH]2)CCN(C2CCC2)C1 (stereo not drawn) [2-(1-cyclobutyl-3-methylpyrrolidin-3-yl)-1H-benzimidazole-4-carboxamide] | 4 |
| CC1(c2nc3c(C(N)=O)cccc3[nH]2)CCN(C2CCC2)CC1 [2-(1-cyclobutyl-4-methylpiperidin-4-yl)-1H-benzimidazole-4-carboxamide] | 9.2 |
| NC(=O)c1cccc2[nH]c(C3CCN3C3CCC3)nc12 (stereo not drawn) [2-(1-cyclobutylazetidin-2-yl)-1H-benzimidazole-4-carboxamide] | 80 |
| NC(=O)c1cccc2[nH]c(C3CN(C4CCC4)C3)nc12 [2-(1-cyclobutylazetidin-3-yl)-1H-benzimidazole-4-carboxamide] | 16.4 |
| NC(=O)c1cccc2[nH]c(C3CCN(C4CCC4)CC3)nc12 [2-(1-cyclobutylpiperidin-4-yl)-1H-benzimidazole-4-carboxamide] | 6.3 |
| NC(=O)c1cccc2[nH]c(C3CCN(C4CCC4)C3)nc12 (stereo not drawn) [2-(1-cyclobutylpyrrolidin-3-yl)-1H-benzimidazole-4-carboxamide] | 6.8 |
| CC1(c2nc3c(C(N)=O)cccc3[nH]2)CCN1C1CCCCC1 (stereo not drawn) [2-(1-cyclohexyl-2-methylazetidin-2-yl)-1H-benzimidazole-4-carboxamide] | 27.7 |
| CC1(c2nc3c(C(N)=O)cccc3[nH]2)CN(C2CCCCC2)C1 [2-(1-cyclohexyl-3-methylazetidin-3-yl)-1H-benzimidazole-4-carboxamide] | 5.6 |
| CC1(c2nc3c(C(N)=O)cccc3[nH]2)CCN(C2CCCCC2)C1 (stereo not drawn) [2-(1-cyclohexyl-3-methylpyrrolidin-3-yl)-1H-benzimidazole-4-carboxamide] | 5.8 |
| CC1(c2nc3c(C(N)=O)cccc3[nH]2)CCCN(C2CCCCC2)CC1 (stereo not drawn) [2-(1-cyclohexyl-4-methylazepan-4-yl)-1H-benzimidazole-4-carboxamide] | 11.9 |
| NC(=O)c1cccc2[nH]c(C3CCCN(C4CCCCC4)CC3)nc12 (stereo not drawn) [2-(1-cyclohexylazepan-4-yl)-1H-benzimidazole-4-carboxamide] | 4.8 |
| NC(=O)c1cccc2[nH]c(C3CCN3C3CCCCC3)nc12 (stereo not drawn) [2-(1-cyclohexylazetidin-2-yl)-1H-benzimidazole-4-carboxamide] | 245 |
| NC(=O)c1cccc2[nH]c(C3CN(C4CCCCC4)C3)nc12 [2-(1-cyclohexylazetidin-3-yl)-1H-benzimidazole-4-carboxamide] | 16 |
| NC(=O)c1cccc2[nH]c(C3CCN(C4CCCCC4)C3)nc12 (stereo not drawn) [2-(1-cyclohexylpyrrolidin-3-yl)-1H-benzimidazole-4-carboxamide] | 7 |
| CC1(c2nc3c(C(N)=O)cccc3[nH]2)CCN1C1CCCC1 (stereo not drawn) [2-(1-cyclopentyl-2-methylazetidin-2-yl)-1H-benzimidazole-4-carboxamide] | 31.1 |
| CC1(c2nc3c(C(N)=O)cccc3[nH]2)CN(C2CCCC2)C1 [2-(1-cyclopentyl-3-methylazetidin-3-yl)-1H-benzimidazole-4-carboxamide] | 4 |
| CC1(c2nc3c(C(N)=O)cccc3[nH]2)CCN(C2CCCC2)C1 (stereo not drawn) [2-(1-cyclopentyl-3-methylpyrrolidin-3-yl)-1H-benzimidazole-4-carboxamide] | 3.4 |
| CCN1CCCC1(C)c1nc2c(C(N)=O)cccc2[nH]1 (stereo not drawn) [2-(1-ethyl-2-methylpyrrolidin-2-yl)-1H-benzimidazole-4-carboxamide] | 6 |

| SMILES | Ki [nM] |
| --- | --- |
| CC(C)CN1CC(C)(c2nc3c(C(N)=O)cccc3[nH]2)C1 [2-(1-isobutyl-3-methylazetidin-3-yl)-1H-benzimidazole-4-carboxamide] | 5.6 |
| CC(C)CN1CCC(C)(c2nc3c(C(N)=O)cccc3[nH]2)C1 (stereo not drawn) [2-(1-isobutyl-3-methylpyrrolidin-3-yl)-1H-benzimidazole-4-carboxamide] | 3.8 |
| CC(C)CN1CC(c2nc3c(C(N)=O)cccc3[nH]2)C1 [2-(1-isobutylazetidin-3-yl)-1H-benzimidazole-4-carboxamide] | 14.4 |
| CC(C)CN1CCC(c2nc3c(C(N)=O)cccc3[nH]2)C1 (stereo not drawn) [2-(1-isobutylpyrrolidin-3-yl)-1H-benzimidazole-4-carboxamide] | 7.4 |
| CC(C)N1CCC1c1nc2c(C(N)=O)cccc2[nH]1 (stereo not drawn) [2-(1-isopropylazetidin-2-yl)-1H-benzimidazole-4-carboxamide] | 118 |
| CC(C)N1CCC(c2nc3c(C(N)=O)cccc3[nH]2)CC1 [2-(1-isopropylpiperidin-4-yl)-1H-benzimidazole-4-carboxamide] | 6 |
| CCCN1CC(c2nc3c(C(N)=O)cccc3[nH]2)C1 [2-(1-propylazetidin-3-yl)-1H-benzimidazole-4-carboxamide] | 14.1 |
| CCCN1CCC(c2nc3c(C(N)=O)cccc3[nH]2)C1 (stereo not drawn) [2-(1-propylpyrrolidin-3-yl)-1H-benzimidazole-4-carboxamide] | 8.1 |
| NC(=O)c1cccc2[nH]c(C3CN(C4CCOCC4)C3)nc12 [2-(1-tetrahydro-2H-pyran-4-ylazetidin-3-yl)-1H-benzimidazole-4-carboxamide] | 45.6 |
| NC(=O)c1cccc2[nH]c(C3CCN(C4CCOCC4)C3)nc12 (stereo not drawn) [2-(1-tetrahydro-2H-pyran-4-ylpyrrolidin-3-yl)-1H-benzimidazole-4-carboxamide] | 8.2 |
| CCCN1CCCC1(C)c1nc2c(C(N)=O)cccc2[nH]1 (stereo not drawn) [2-(2-methyl-1-propylpyrrolidin-2-yl)-1H-benzimidazole-4-carboxamide] | 18.7 |
| CCCN1CC(C)(c2nc3c(C(N)=O)cccc3[nH]2)C1 [2-(3-methyl-1-propylazetidin-3-yl)-1H-benzimidazole-4-carboxamide] | 6.9 |
| CCCN1CCC(C)(c2nc3c(C(N)=O)cccc3[nH]2)C1 (stereo not drawn) [2-(3-methyl-1-propylpyrrolidin-3-yl)-1H-benzimidazole-4-carboxamide] | 4.2 |
| CC1(c2nc3c(C(N)=O)cccc3[nH]2)CN(C2CCOCC2)C1 [2-(3-methyl-1-tetrahydro-2H-pyran-4-ylazetidin-3-yl)-1H-benzimidazole-4-carboxamide] | 12.7 |
| CC1(c2nc3c(C(N)=O)cccc3[nH]2)CCN(C2CCOCC2)C1 (stereo not drawn) [2-(3-methyl-1-tetrahydro-2H-pyran-4-ylpyrrolidin-3-yl)-1H-benzimidazole-4-carboxamide] | 7.2 |
| CCCN1CCC(C)(c2nc3c(C(N)=O)cccc3[nH]2)CC1 [2-(4-methyl-1-propylpiperidin-4-yl)-1H-benzimidazole-4-carboxamide] | 13.5 |
| CC(CCc1ccccc1)N1CCC(c2nc3c(C(N)=O)cccc3[nH]2)C1 (stereo not drawn) [2-[1-(1-methyl-3-phenylpropyl)pyrrolidin-3-yl]-1H-benzimidazole-4-carboxamide] | 13.2 |
| CC1(c2nc3c(C(N)=O)cccc3[nH]2)CN(CC2CC2)C1 [2-[1-(cyclopropylmethyl)-3-methylazetidin-3-yl]-1H-benzimidazole-4-carboxamide] | 8 |
| CC1(c2nc3c(C(N)=O)cccc3[nH]2)CCN(CC2CC2)C1 (stereo not drawn) [2-[1-(cyclopropylmethyl)-3-methylpyrrolidin-3-yl]-1H-benzimidazole-4-carboxamide] | 5 |
